Reference: patent US20230203045A1, “INHIBITORS OF NEK7 KINASE” (Halia Therapeutics, Inc., priority 2020, published 2023)

Target: T1, full-length recombinant human NEK7 (Homo sapiens, UniProt Q8TDX7)
T1 construct: full-length recombinant human NEK7; GST (N); purchased SignalChem Nab 09-10G; host or cells: Sf9 insect cells (baculovirus)
Experiment: NEK7 Enzymatic Assay
Type: biochemical
Settings: casein substrate, [33P]-ATP, 2 hours at room temperature
Description: Casein substrate (from bovine milk, hydrolyzed and partially dephosphorylated mixture of α, β and κ caseins, obtained from Sigma Aldrich, catalogue #C4765, diluted in distilled water to a final concentration of 1 mg/mL) and full-length recombinant human NEK7 (expressed by baculovirus in Sf9 insect cells using a N-terminal GST tag, obtained from SignalChem, catalogue #Nab 09-10G, 0.1 μg/μL) were mixed in assay buffer (20 mM Hepes pH 7.5, 10 mM MgCl2, 1 mM EGTA, 0.02% Brij35, 0.02 mg/ml BSA, 0.1 mM Na3VO4, 2 mM DTT, 1% DMSO). Compounds of interest (serial 3-fold dilution in DMSO from 10 μM to 0.5 nM) or vehicle (1% DMSO) were dispensed into the kinase reaction mixture by Acoustic technology (Echo550; nanoliter range). After incubation at room temperature for 20 minutes, the kinase reaction was initiated by addition of [^33P]-ATP (specific activity 10 μCi/μl) and the mixture was incubated at room temperature for 2 hours. The reaction was then stopped by spotting the reaction mixture on strips of phosphocellulose P81 paper. Following washing, the radioactivity of the P81 paper was measured and kinase activity data were expressed as the percent remaining kinase activity in test samples compared to vehicle reactions. IC50 values and curve fits were obtained using Prism (GraphPad Software).

T1 sequence (Q8TDX7 whole entry): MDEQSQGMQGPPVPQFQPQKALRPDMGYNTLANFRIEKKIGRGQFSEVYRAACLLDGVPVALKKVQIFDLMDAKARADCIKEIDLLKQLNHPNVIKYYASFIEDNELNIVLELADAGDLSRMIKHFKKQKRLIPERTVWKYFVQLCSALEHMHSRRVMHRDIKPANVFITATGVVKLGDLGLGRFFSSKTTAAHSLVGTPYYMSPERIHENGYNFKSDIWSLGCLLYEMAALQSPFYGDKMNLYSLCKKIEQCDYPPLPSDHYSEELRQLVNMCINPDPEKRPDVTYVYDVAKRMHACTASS

| Compound | IC50 [nM] |
| --- | --- |
| CC(C)(C)c1nnc(NC(=O)Nc2ccc(-c3nn(C4CC4)c4ncnc(N)c34)cc2F)s1 [Example 33, 1-(4-(4-amino-1-cyclopropyl-1H-pyrazolo[3,4-d]pyrimidin-3-yl)-2-fluorophenyl)-3-(5-(tert-butyl)-1,3,4-thiadiazol-2-yl)] | > 501 |
| CC(C)(O)Cn1nc(-c2ccc(NC(=O)Nc3cc(C4(C(F)(F)F)CC4)no3)c(F)c2)c2c(N)ncnc21 [Example 66, 1-(4-(4-amino-1-(2-hydroxy-2-methylpropyl)-1H-pyrazolo[3,4-d]pyrimidin-3-yl)-2-fluorophenyl)-3-(3-(1-(trifluoromethyl)cyclopropyl)isoxazol-5-yl)urea] | 151 to 300 |
| CC(C)(O)Cn1nc(-c2ccc(NC(=O)Nc3cc(C4(C(F)(F)F)CC4)on3)c(F)c2)c2c(N)ncnc21 [Example 67, 1-(4-(4-amino-1-(2-hydroxy-2-methylpropyl)-1H-pyrazolo[3,4-d]pyrimidin-3-yl)-2-fluorophenyl)-3-(5-(1-(trifluoromethyl)cyclopropyl)isoxazol-3-yl)urea] | 301 to 500 |
| CN1CC(n2nc(-c3ccc(NC(=O)Nc4cc(C5(C(F)(F)F)CC5)on4)c(F)c3)c3c(N)ncnc32)C1 [Example 68, 1-(4-(4-amino-1-(1-methylazetidin-3-yl)-1H-pyrazolo[3,4-d]pyrimidin-3-yl)-2-fluorophenyl)-3-(5-(1-(trifluoromethyl)cyclopropyl)isoxazol-3-yl)urea] | > 501 |

System: IL-1β release
Experiment: IL-1β Release Assay
Type: cell-based
Settings: Homo sapiens; PMA-differentiated THP-1 cells, 250 ng/mL LPS then 20 μM nigericin; cleaved IL-1β in media; read-out: I1-1β release IC50
Description: Approximately 1.5 million THP-1 cells were plated in each well of a 6-well TC plate and incubated with 40 nM PMA in RPMI (10% FBS, 1% Penstrep) for 24 hours. The media was then removed and cells were rested in RPMI (10% FBS, 1% Penstrep) for 24 hours after which time the media was removed and cells were pre-treated for 2 hours with various concentrations of compounds of interest (typically serial 3-fold dilution in RPMI+5% FBS, concentrations ranging from 1 μM to 0.5 nM) in RPMI (5% FBS). The media was again removed and cells were incubated with 250 ng/mL LPS and compounds of interest (concentrations as above) in RMPI (5% FBS) for 2 hours. The media was removed for a last time and cells were incubated with 20 μM nigericin and compounds of interest (concentrations as above) in Opti-MEM for 30 minutes. Cell media was then collected and the amount of cleaved IL-1β was determined using a JESS instrument (Protein Simple) and standard protocols. Cleaved Il-1β antibody was obtained from Cell Signaling (catalogue #83186S) and was used at 1:20 dilution in antibody diluent 2. Protein Simple 1× anti-Rabbit HRP secondary antibody was used along with Protein Simple luminol and peroxide for chemiluminescent detection. Primary antibody incubation time was increased from 30 minutes to 60 minutes.

| Compound | IC50 [nM] |
| --- | --- |
| CC(C)(C)c1cc(NC(=O)Nc2ccc(-c3nn(C4COC4)c4ncnc(N)c34)cc2F)on1 [Example 12, 1-(4-(4-amino-1-(oxetan-3-yl)-1H-pyrazolo[3,4-d]pyrimidin-3-yl)-2-fluorophenyl)-3-(3-(tert-butyl)isoxazol-5-yl)urea] | 51 to 200 |
| CC(C)(C)c1cc(NC(=O)Nc2ccc(-c3nn(C4CC4)c4ncnc(N)c34)cc2F)on1 [Example 13, 1-(4-(4-amino-1-cyclopropyl-1H-pyrazolo[3,4-d]pyrimidin-3-yl)-2-fluorophenyl)-3-(3-(tert-butyl)isoxazol-5-yl)urea] | < 50 |
| CC(C)(C)c1cc(NC(=O)Nc2ccc(-c3nn(C4CCN(C5COC5)CC4)c4ncnc(N)c34)cc2F)on1 [Example 14, 1-(4-(4-amino-1-(1-(oxetan-3-yl)piperidin-4-yl)-1H-pyrazolo[3,4-d]pyrimidin-3-yl)-2-fluorophenyl)-3-(3-(tert-butyl)isoxazol-5-yl)urea] | < 50 |
| Nc1ncnc2c1c(-c1ccc(NC(=O)Nc3cc(C4(C(F)(F)F)CC4)no3)c(F)c1)nn2C1CC1 [Example 21, 1-(4-(4-amino-1-cyclopropyl-1H-pyrazolo[3,4-d]pyrimidin-3-yl)-2-fluorophenyl)-3-(3-(1-(trifluoromethyl)cyclopropyl)isoxazol-5-yl)urea] | < 50 |
| Nc1ncnc2c1c(-c1ccc(NC(=O)Nc3cc(C4(C(F)(F)F)CC4)on3)c(F)c1)nn2C1CC1 [Example 25, 1-(4-(4-amino-1-cyclopropyl-1H-pyrazolo[3,4-d]pyrimidin-3-yl)-2-fluorophenyl)-3-(5-(1-(trifluoromethyl)cyclopropyl)isoxazol-3-yl)urea] | 51 to 200 |
| CC(C)(C)c1cc(NC(=O)Nc2ccc(-c3nn(C4CC4)c4ccnc(N)c34)cc2F)on1 [Example 30, 1-(4-(4-amino-1-cyclopropyl-1H-pyrazolo[4,3-c]pyridin-3-yl)-2-fluorophenyl)-3-(3-(tert-butyl)isoxazol-5-yl)urea] | < 50 |
| CC1(c2cc(NC(=O)Nc3ccc(-c4nn(C5CC5)c5ncnc(N)c45)cc3F)on2)CC1 [Example 32, 1-(4-(4-amino-1-cyclopropyl-1H-pyrazolo[3,4-d]pyrimidin-3-yl)-2-fluorophenyl)-3-(3-(1-methylcyclopropyl)isoxazol-5-yl)] | 51 to 200 |
| CC(C)(C)c1nnc(NC(=O)Nc2ccc(-c3nn(C4CC4)c4ncnc(N)c34)cc2F)s1 [Example 33, 1-(4-(4-amino-1-cyclopropyl-1H-pyrazolo[3,4-d]pyrimidin-3-yl)-2-fluorophenyl)-3-(5-(tert-butyl)-1,3,4-thiadiazol-2-yl)] | 201 to 500 |
| Nc1nccc2c1c(-c1ccc(NC(=O)Nc3cc(C4(C(F)(F)F)CC4)no3)c(F)c1)nn2C1CC1 [Example 45, 1-(4-(4-amino-1-cyclopropyl-1H-pyrazolo[4,3-c]pyridin-3-yl)-2-fluorophenyl)-3-(3-(1-(trifluoromethyl)cyclopropyl)isoxazol-5-yl)urea] | 51 to 200 |
